# Data: PubChem BioAssay (NCI)
# “And” between values parts separate entries of the source, which are not always exact repeats. Identical values can stand only once.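 Results reflect a 48-hour exposure of cells in 96-well plates to compound at five concentrations. GI50 = concentration required for 50% inhibition of growth. At the TGI there is no net growth.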
# Tested on: SK-MEL-5 melanoma
# Experiment: NCI-60 cell line screen, 48 h
Compound,GI50,TGI
C[As](C)SC1OC(CO)C(O)C1O (centres undefined),0.215 µM,0.583 µM
CCCCCCCCCC/C=C/CC(=O)SCCNC(=O)CCNC(=O)[C@@H](O)C(C)(C)COP(=O)(O)OP(=O)(O)OCC1OC(n2cnc3c(N)ncnc32)C(O)C1OP(=O)(O)O (some centres undefined),,> 10 µM
Cn1c(=O)c2c(nc(Nc3cc(=O)[nH]c(=O)[nH]3)n2Cc2ccccc2)n(C)c1=O,48 µM,> 100 µM
COc1ccc2c(c1)CCC1C2CC[C@@]2(C)C1CC1=CC(COC(C)=O)C3C(=O)c4ccccc4C(=O)C3C12 (some centres undefined),> 100 µM,> 100 µM
C=C(F)C(=O)N1CCN(c2nc(OC[C@@H]3CCCN3C)nc3c2CCN(c2cccc4cccc(Cl)c24)C3)C[C@@H]1CC#N,1.63 µM,3.06 µM
Cc1c2cccnc2c(C)c2c1c1cc(CO)ccc1n2C,1.75 µM,5.12 µM
CC/C(=C(/c1ccc(OCCN(C)C)cc1)c1ccc(OC(=O)CCCCC(=O)c2c(C)[nH]c(/C=C3\N=C(c4ccc[nH]4)C=C3OC)c2C)cc1)c1ccccc1,1.61 µM,3.11 µM
CC[C@]12C=CCN3CC[C@@]4(c5ccc(OC)cc5N(C)[C@H]4[C@@](O)(C(=O)OC)[C@@H]1OC(=O)CCC[P+](c1ccccc1)(c1ccccc1)c1ccccc1)[C@@H]32,0.817 µM and 1.65 µM,1.53 µM and 3.02 µM
CC(=O)OC1Oc2ccccc2-c2oc(=O)c(-c3cc(=O)oc4cc(O)ccc34)cc21 (centres undefined),13.2 µM,26.5 µM
CS(=O)(=O)N/N=C/CN1C(=O)c2ccccc2C1=O,,> 100 µM
Ic1ccc(Nc2nc3nonc3nc2Nc2ccc(I)cc2)cc1,0.137 µM,0.352 µM
CC(C)(C)C(=O)OCOP(=O)(OCOC(=O)C(C)(C)C)C1CCCN(O)C1=O (centres undefined),0.324 µM,1.58 µM
COC(=O)C1=C(c2ccc3c(c2)OCO3)O[C@H](c2cc(OC)c(OC)c(OC)c2)[C@H]1COC(C)=O,,7.83 µM
COc1ccc(OC)c(NC(=O)C(=O)NNC(=O)c2sc(NNC(C)=O)nc2C)c1,,> 100 µM
O=[N+]([O-])c1nccn1CC(O)c1ccc(F)cc1 (centres undefined),,> 100 µM
O=C1c2ccccc2C2(Br)C(=O)c3ccccc3C12 (centres undefined),,> 100 µM
CCCCOC(=O)C1C(c2ccc(Cl)cc2)NC(c2ccc(Cl)cc2)C(C(=O)OCCCC)S1(=O)=O (centres undefined),,> 100 µM
CCOC(=O)Oc1c(OC)cc(C(=O)NC2CCc3cc(OC)c(OC)c(OC)c3-c3ccc(SC)c(=O)cc32)cc1OC (centres undefined),,0.916 µM
CC(=O)Nc1ccc(C(=O)NN2C(=O)C(Cl)C2c2ccccc2)cc1 (centres undefined),,> 100 µM
CSc1nc2c(nc(C)c(=O)n2C2OCC(OC(C)=O)C(OC(C)=O)C2OC(C)=O)c(=O)[nH]1 (centres undefined),,> 100 µM
O=S(O)CCCCSSCC(O)C(O)CSSCCCCS(=O)O (centres undefined),4.97 µM and 11.2 µM,18.1 µM and 26 µM
COc1ccc(C2S/C(=C\c3ccccc3O)C(=O)N2NC(=O)Cc2ccccc2)cc1 (centres undefined),,> 100 µM
CC1OC(n2cc(F)c(=O)[nH]c2=O)C=CC1O (centres undefined),,> 100 µM
C/C(=C\CCc1ccoc1)CC/C=C(\C)CCCC1=CC(=O)OC1,2.55 µM,6.66 µM
C=C(C=O)[C@@H]1C2OC(=O)C(=C)[C@@H]2CC(O)[C@@]1(C)CC (some centres undefined),,19.8 µM
C=C(CCCCC)CN1CCCC1[C@@](C)(O)CC(=O)OCC (some centres undefined),,> 100 µM
O=C1c2ccccc2C(=O)C1(Cl)C1(S(=O)(=O)O)c2ccccc2-c2ccccc21,,> 100 µM

# Tested on: ACHN renal
# Experiment: NCI-60 cell line screen, 48 h
Compound,TGI,GI50
O=C(CCCn1ccnc1[N+](=O)[O-])NCCn1cncc1[N+](=O)[O-],> 100 µM,
Cn1cc(C2=C(c3ccc4ccccc4c3)C(=O)NC2=O)c2ccccc21,> 25 µM,> 25 µM
O=C(OCc1ccc2cccc(O)c2n1)N1CCN(C(=O)c2cc3cc(F)ccc3[nH]2)CC1,1.92 µM,0.615 µM
C[As](C)SC1OC(CO)C(O)C1O (centres undefined),1.03 µM,0.257 µM
CCCCCCCCCC/C=C/CC(=O)SCCNC(=O)CCNC(=O)[C@@H](O)C(C)(C)COP(=O)(O)OP(=O)(O)OCC1OC(n2cnc3c(N)ncnc32)C(O)C1OP(=O)(O)O (some centres undefined),> 10 µM,
Cn1c(=O)c2c(nc(Nc3cc(=O)[nH]c(=O)[nH]3)n2Cc2ccccc2)n(C)c1=O,> 100 µM,> 100 µM
COc1ccc2c(c1)CCC1C2CC[C@@]2(C)C1CC1=CC(COC(C)=O)C3C(=O)c4ccccc4C(=O)C3C12 (some centres undefined),> 100 µM,47.9 µM
C=C(F)C(=O)N1CCN(c2nc(OC[C@@H]3CCCN3C)nc3c2CCN(c2cccc4cccc(Cl)c24)C3)C[C@@H]1CC#N,2.58 µM,0.962 µM
Cc1c2cccnc2c(C)c2c1c1cc(CO)ccc1n2C,6.89 µM,0.937 µM
CC/C(=C(/c1ccc(OCCN(C)C)cc1)c1ccc(OC(=O)CCCCC(=O)c2c(C)[nH]c(/C=C3\N=C(c4ccc[nH]4)C=C3OC)c2C)cc1)c1ccccc1,22.8 µM,4.84 µM
CC[C@]12C=CCN3CC[C@@]4(c5ccc(OC)cc5N(C)[C@H]4[C@@](O)(C(=O)OC)[C@@H]1OC(=O)CCC[P+](c1ccccc1)(c1ccccc1)c1ccccc1)[C@@H]32,14.5 µM and 20.1 µM,5.32 µM and 7.58 µM
CC(=O)OC1Oc2ccccc2-c2oc(=O)c(-c3cc(=O)oc4cc(O)ccc34)cc21 (centres undefined),79.2 µM,23.1 µM
CS(=O)(=O)N/N=C/CN1C(=O)c2ccccc2C1=O,> 100 µM,
Ic1ccc(Nc2nc3nonc3nc2Nc2ccc(I)cc2)cc1,> 100 µM,0.269 µM
CC(C)(C)C(=O)OCOP(=O)(OCOC(=O)C(C)(C)C)C1CCCN(O)C1=O (centres undefined),7.97 µM,0.34 µM
COC(=O)C1=C(c2ccc3c(c2)OCO3)O[C@H](c2cc(OC)c(OC)c(OC)c2)[C@H]1COC(C)=O,> 100 µM,

Compound,TGI,GI50
COc1ccc(OC)c(NC(=O)C(=O)NNC(=O)c2sc(NNC(C)=O)nc2C)c1,96.1 µM,
CCCCc1c(OC)cc(O)c2c1C(=O)c1[nH]c(C(=O)O)c(O)c(=O)c1C2=O,> 100 µM,
O=[N+]([O-])c1nccn1CC(O)c1ccc(F)cc1 (centres undefined),> 100 µM,
O=C1c2ccccc2C2(Br)C(=O)c3ccccc3C12 (centres undefined),> 100 µM,
CCCCOC(=O)C1C(c2ccc(Cl)cc2)NC(c2ccc(Cl)cc2)C(C(=O)OCCCC)S1(=O)=O (centres undefined),> 100 µM,
CCOC(=O)Oc1c(OC)cc(C(=O)NC2CCc3cc(OC)c(OC)c(OC)c3-c3ccc(SC)c(=O)cc32)cc1OC (centres undefined),> 70 µM,0.235 µM
CC(=O)Nc1ccc(C(=O)NN2C(=O)C(Cl)C2c2ccccc2)cc1 (centres undefined),> 100 µM,
COC(=O)c1cc2c(cc1O)[C@@H](NC(C)=O)CCc1cc(OC)c(OC)c(OC)c1-2,> 100 µM,0.0459 µM
CSc1nc2c(nc(C)c(=O)n2C2OCC(OC(C)=O)C(OC(C)=O)C2OC(C)=O)c(=O)[nH]1 (centres undefined),> 100 µM,
O=S(O)CCCCSSCC(O)C(O)CSSCCCCS(=O)O (centres undefined),68.7 µM and 90 µM,
COc1ccc(C2S/C(=C\c3ccccc3O)C(=O)N2NC(=O)Cc2ccccc2)cc1 (centres undefined),> 100 µM,
CC1OC(n2cc(F)c(=O)[nH]c2=O)C=CC1O (centres undefined),> 100 µM,
C/C(=C\CCc1ccoc1)CC/C=C(\C)CCCC1=CC(=O)OC1,> 100 µM,12.6 µM
C=C(C=O)[C@@H]1C2OC(=O)C(=C)[C@@H]2CC(O)[C@@]1(C)CC (some centres undefined),27.1 µM,
C=C(CCCCC)CN1CCCC1[C@@](C)(O)CC(=O)OCC (some centres undefined),> 100 µM,
O=C1c2ccccc2C(=O)C1(Cl)C1(S(=O)(=O)O)c2ccccc2-c2ccccc21,> 100 µM,

# Tested on: SN12C renal
# Experiment: NCI-60 cell line screen, 48 h
Compound,TGI,GI50
O=C(CCCn1ccnc1[N+](=O)[O-])NCCn1cncc1[N+](=O)[O-],> 100 µM,
Cn1cc(C2=C(c3ccc4ccccc4c3)C(=O)NC2=O)c2ccccc21,> 25 µM,> 25 µM
O=C(OCc1ccc2cccc(O)c2n1)N1CCN(C(=O)c2cc3cc(F)ccc3[nH]2)CC1,2.49 µM,1.21 µM
C[As](C)SC1OC(CO)C(O)C1O (centres undefined),1.52 µM,0.312 µM
CCCCCCCCCC/C=C/CC(=O)SCCNC(=O)CCNC(=O)[C@@H](O)C(C)(C)COP(=O)(O)OP(=O)(O)OCC1OC(n2cnc3c(N)ncnc32)C(O)C1OP(=O)(O)O (some centres undefined),> 10 µM,
Cn1c(=O)c2c(nc(Nc3cc(=O)[nH]c(=O)[nH]3)n2Cc2ccccc2)n(C)c1=O,> 100 µM,> 100 µM
COc1ccc2c(c1)CCC1C2CC[C@@]2(C)C1CC1=CC(COC(C)=O)C3C(=O)c4ccccc4C(=O)C3C12 (some centres undefined),> 100 µM,> 100 µM
C=C(F)C(=O)N1CCN(c2nc(OC[C@@H]3CCCN3C)nc3c2CCN(c2cccc4cccc(Cl)c24)C3)C[C@@H]1CC#N,2.83 µM,1.31 µM
Cc1c2cccnc2c(C)c2c1c1cc(CO)ccc1n2C,40.3 µM,2.08 µM
CC/C(=C(/c1ccc(OCCN(C)C)cc1)c1ccc(OC(=O)CCCCC(=O)c2c(C)[nH]c(/C=C3\N=C(c4ccc[nH]4)C=C3OC)c2C)cc1)c1ccccc1,21.4 µM,5.39 µM
CC[C@]12C=CCN3CC[C@@]4(c5ccc(OC)cc5N(C)[C@H]4[C@@](O)(C(=O)OC)[C@@H]1OC(=O)CCC[P+](c1ccccc1)(c1ccccc1)c1ccccc1)[C@@H]32,5.45 µM and 6.66 µM,0.719 µM and 0.491 µM
CC(=O)OC1Oc2ccccc2-c2oc(=O)c(-c3cc(=O)oc4cc(O)ccc34)cc21 (centres undefined),> 100 µM,30.9 µM
CS(=O)(=O)N/N=C/CN1C(=O)c2ccccc2C1=O,> 100 µM,
